# Laboratory results reported in patent US10251886B1, “4-anilinoquinazoline derivative and albumin conjugates thereof” (National Chiao Tung University, priority 2018, dated 2019).
# Read-outs that look alike come from different tables or passages of the source.
# Key:
# A549 cell = test: Cell viability assay (MTT assay), A549 cells; type: cell-based
# Procedure: (§1) A549 cell (ATCC number: CCL-185) was a non-small cell lung carcinoma cell line, expressing wild type EGFR and K-RAS mutation (G12S). H1975 cell (ATCC number: CRL-5908) was a non-small cell lung carcinoma cell line expressing EGFR L858R/T790M mutation. A549 and H1975 cells were cultured in a complete medium at 37° C., 5% CO2 within a humidified incubator (310/Thermo, Forma Scientific, Inc., Marietta, Ohio). The complete medium was RPMI-1640 medium (Gibco, Life Technologies, Grand Island, N.Y., USA) supplemented with 10% fetal bovine serum (FBS), penicillin (100 units/mL), streptomycin (100 μg/mL), and sodium bicarbonate.
# (§2) The cells were plated in 96-well plates at a density of 1×10^4 cells/well for 16-20 hours. Thereafter, the cells in each well were treated by 0.1 mL of a treating agent for 24 hours. The treating agents for the wells were different in treating chemicals and their concentrations. The treating chemicals were Erlotinib, Erlotinib analogues (CE 1 to 6 and E1), and BSA-conjugated Erlotinib Analogue (E2). Next, the cells were washed with phosphate-buffered saline (PBS) and were further cultured with fresh complete medium for 2 days. Subsequently, the cells were incubated with 0.5 mg/ml of 3-(4,5-dimethylthiazol-2-yl)-2,5-diphenyltetrazolium bromide (MTT) in fresh complete medium for 4 hours, followed by removal of the medium and addition of dimethyl sulfoxide (DMSO, 0.1 mL) to thereby allow […]. The absorbance of the reduced MTT (formazan) was read on a microplate reader (VERSAmax, Molecular Devices Inc., CA) at 565 nm. […] Tables 1 and 2, and FIGS. 1 and 2 show cell viability values for A549 cell using different treating chemicals in different concentrations. Table 3 and FIG. 3 show cell viability values for H1975 cell using two treating chemicals in different concentrations.
# H1975 cell = test: Cell viability assay (MTT assay), H1975 cells; type: cell-based; conditions: treated 24 hours, cultured 2 more days, Table 3
# Procedure: as §1, §2
# [1] = Homo sapiens, A549, 24 h, read-out: Cell viability (%)
Structure (SMILES),viability at 5 µM (A549 cell; [1]) [%],viability at 10 µM (A549 cell; [1]) [%],viability at 20 µM (A549 cell; [1]) [%],viability at 40 µM (A549 cell; [1]) [%],viability at 60 µM (A549 cell; [1]) [%],other results
"C#Cc1cccc(Nc2ncnc3cc(OC)c(OCc4ccccc4)cc23)c1 [CE1, 6-(benzyloxy)-N-(3-ethynylphenyl)-7-methoxyquinazolin-4-amine]",79.9,74.7,73,71.6,63.4,
"C#Cc1cccc(Nc2ncnc3cc(OC)c(OCCOC)cc23)c1 [CE2, N-(3-ethynylphenyl)-7-methoxy-6-(2-methoxyethoxy) quinazolin-4-amine]",69.5,60.9,62.4,64.5,61.6,
"C#Cc1cccc(Nc2ncnc3cc(OCCOC(C)=O)c(OCCOC)cc23)c1 [CE3, 2-{[4-((3-ethynylphenyl)amino)-6-(2-methoxyethoxy)quinazolin-7-yl]oxy}ethyl acetate]",79.3,77.5,70.1,63,59.5,
"C#Cc1cccc(Nc2ncnc3cc(OCCO)c(OCCOC)cc23)c1 [CE4, 2-{[4-((3-ethynylphenyl)amino)-6-(2-methoxyethoxy)quinazolin-7-yl]oxy}ethanol]",74.5,68.4,63.1,60.7,57.8,
"C#Cc1cccc(Nc2ncnc3cc(OCCOS(C)(=O)=O)c(OCCOC)cc23)c1 [CE5, 2-{[4-((3-ethynylphenyl)amino)-6-(2-methoxyethoxy)quinazolin-7-yl]oxy}ethyl methanesulfonate]",73.7,67.2,56.1,57.9,60.7,
"C#Cc1cccc(Nc2ncnc3cc(OCCN)c(OCCOC)cc23)c1 [CE6, 7-(2-aminoethoxy)-N-(3-ethynylphenyl)-6-(2-methoxyethoxy) quinazolin-4-amine]",75.4,74.8,74.1,62.7,58.6,
"C#Cc1cccc(Nc2ncnc3cc(OCCOC)c(OCCOC)cc23)c1 [Erlotinib, reference compound]",,,,,,"viability at 0.5 µM (A549 cell; Homo sapiens, A549, 24 h, read-out: Cell viability (%), A549 cell, treating chemical 0.5 μM, treated 24 hours, cultured 2 more days, Table 2): 89.3%; viability at 1 µM (A549 cell; Homo sapiens, A549, 24 h, read-out: Cell viability (%), A549 cell, treating chemical 1 μM, treated 24 hours, cultured 2 more days, Table 2): 89.3%; viability at 5 µM (A549 cell; Homo sapiens, A549, 24 h, read-out: Cell viability (%), A549 cell, treating chemical 5 μM, treated 24 hours, cultured 2 more days, Table 1): 73.8%; viability at 5 µM (A549 cell; Homo sapiens, A549, 24 h, read-out: Cell viability (%), A549 cell, treating chemical 5 μM, treated 24 hours, cultured 2 more days, Table 2): 84.2%; viability at 10 µM (A549 cell; Homo sapiens, A549, 24 h, read-out: Cell viability (%), A549 cell, treating chemical 10 μM, treated 24 hours, cultured 2 more days, Table 1): 71.7%; viability at 20 µM (A549 cell; Homo sapiens, A549, 24 h, read-out: Cell viability (%), A549 cell, treating chemical 20 μM, treated 24 hours, cultured 2 more days, Table 1): 65.9%; viability at 40 µM (A549 cell; Homo sapiens, A549, 24 h, read-out: Cell viability (%), A549 cell, treating chemical 40 μM, treated 24 hours, cultured 2 more days, Table 1): 61.2%; viability at 60 µM (A549 cell; Homo sapiens, A549, 24 h, read-out: Cell viability (%), A549 cell, treating chemical 60 μM, treated 24 hours, cultured 2 more days, Table 1): 58.5%; Cell viability (%) (H1975 cell; treating chemical 0.5 μM): 98.4% ± 2.7; Cell viability (%) (H1975 cell; treating chemical 1 μM): 93.1% ± 2.5; Cell viability (%) (H1975 cell; treating chemical 5 μM): 75.8% ± 4.5"
"C#Cc1cccc(Nc2ncnc3cc(OCCI)c(OCCOC)cc23)c1 [Example E1, N-(3-ethynylphenyl)-7-(2-iodoethoxy)-6-(2-methoxyethoxy)quinazolin-4-amine]",32.8,30.3,26.3,28,24.3,"Cell viability in comparison with the commercial available drug (Erlotinib) (A549 cell; A549 cells, Tables 1 and 2, FIGS. 1 and 2): significantly lower cell viability"
